Experimental data reported in patent publication US10300052B2, “Methods for increasing CFTR activity” (THE UAB RESEARCH FOUNDATION, priority 2012, dated 2019).

Test system: porcine trachea CFTR−/−
Assay: μOCT imaging of airway epithelial function in porcine trachea, CFTR-/- animals
Conditions: sequential ivacaftor 10 μM, forskolin 100 nM, acetylcholine 100 μM in bath, 37° C. (FIG. 7G)
Source text: FIGS. 7A-7H show the effects of CFTR activators on airway epithelial function in intact porcine trachea by μOCT. FIGS. 7A-7B show representative μOCT images for a CFTR−/− (FIG. 7A) and CFTR+/+ (FIG. 7B) animal. FIGS. 7C-7F, respectively, show ASL depth (FIG. 7C), PCL depth (FIG. 7D), CBF (FIG. 7E) and MCT (FIG. 7F) measurements derived from μOCT images from CFTR−/− and CFTR+/+ animals. FIGS. 7G and 7H show the response of epithelial functional parameters, namely ASL depth and MCT in CFTR−/− (FIG. 7G) and CFTR+/+(FIG. 7H) animals in response to sequential pharmacologic intervention by ivacaftor (10 μM), forskolin (100 nM) and acetylcholine (100 μM).
To further investigate the role of CFTR activators in modulating airway epithelial cell function, CFTR activators were studied in combination with porcine trachea. In this example, porcine trachea from animals having a mutated CFTR (CFTR (−/−) and from animals having a WT-CFTR (CFTR+/+) were evaluated for ASL depth, PCL depth, CBF and MCT. The results are shown in FIGS. 7A-7H.
FIGS. 7G and 7H show the response of epithelial functional parameters, namely ASL depth, CBF and MCT in CFTR−/− and CFTR+/+ animals in response to sequential pharmacologic intervention by ivacaftor (10 μM), forskolin (100 nM) and acetylcholine (100 μM); in this experiment, acetylcholine served as a positive control to induce glandular extrusion in CF tissue). In these experiments, agonists were added to the bath solution and all experiments were conducted under physiological conditions (37° C. and 100% humidity). […] In contrast to FIG. 7G, ASL depth, CBF and MCT were all increased in response to ivacaftor treatment in CFTR+/+ animals, consistent with the results described above for human tissue.
Normal piglet tracheas were obtained from Exemplar Genetics (Sioux Center, Iowa). Tissue were dissected from one-day-old piglets and shipped on wet ice in DMEM. A modified protocol based on airway tissue handling and preparation methods developed by Ballard et al. (Am J Physiol Lung Cell Mol Physiol 298: L270-276, 2010) was employed. Tracheas were immersed in 80 mL Ringer bicarbonate solution (KRB) baths at room temperature and slowly warmed to 37° C. After four hours of pretreatment, the tracheas were removed from the KRB. Accessible mucus and liquid were aspirated from the airway lumens and the tracheal ends were cannulated so that the serosal surface was bathed in KRB [29] without contacting the mucosal surface, as previously described (Ballard et al., Am J Physiol Lung Cell Mol Physiol 298: L270-276, 2010; Martens, et al., Am J Physiol Lung Cell Mol Physiol 301: L236-246, 2011). Tracheas were allowed to equilibrate in KRB bubbled with 95% 02 and 5% CO2 at 37° C. and the luminal side exposed to conditioned air at 100% humidity for 2 hours prior to mOCT imaging (Sleigh et al., Comp Biochem Physiol A Comp Physiol 94: 359-364, 1989).
The μOCT system is a spectral-domain OCT implementation with several improvements to standard OCT that yield high resolution in both lateral and axial directions. The general layout and axial resolution characterization have been described (Liu et al., PLOSOne, 8(1), E54473-2013). A super-continuum source (Fianium SC450) provides the high-bandwidth, short coherence length light necessary for high axial resolution ([…]). A typical OCT system includes an interferometer with the reference and sample arms intersecting at a beamsplitter. The beamsplitter is replaced in μOCT with a 45 degree rod mirror, which apodizes the sample beam by introducing a circular obscuration in the center to achieve a balance of good lateral resolution (2 μm) and long depth of focus (0.2 mm). Custom software is employed to control the galvanometer scanning motors while acquiring spectral data from the line camera. […]

C=C[C@@]1(C)CC(=O)[C@]2(O)[C@@]3(C)[C@@H](O)CCC(C)(C)[C@@H]3[C@H](O)[C@H](OC(C)=O)[C@@]2(C)O1 [forskolin]
no response: ASL depth response | CBF response | MCT response
